{
  "source": "ChEMBL document CHEMBL4251622",
  "about": "“Design, synthesis, and biological evaluation of polo-like kinase 1/eukaryotic elongation factor 2 kinase (PLK1/EEF2K) dual inhibitors for regulating breast cancer cells apoptosis and autophagy” (Eur J Med Chem, 2018)",
  "key": {"BT-483 [1]": {"tested_on": "BT-483", "experiment": "Induction of apoptosis in human BT-483 cells assessed as necrotic cells at 10 uM by Annexin V-FITC/propidium iodide staining based flow cytometry (reference value: 0.18%)", "assay_type": "functional"}, "[2]": {"molecular_target": "Macrophage colony-stimulating factor 1 receptor (Homo sapiens) (UniProt P07333)", "experiment": "Inhibition of wild-type human partial length CSF1R (I564 to S939 residues) expressed in bacterial expression system assessed as residual activity at 1 uM by Kinomescan method relative to control"}, "[3]": {"molecular_target": "Phosphatidylinositol 4,5-bisphosphate 3-kinase catalytic subunit alpha isoform (Homo sapiens) (UniProt P42336)", "experiment": "Inhibition of wild-type human partial length PIK3CA (R108 to N1068 residues) expressed in mammalian expression system assessed as residual activity at 1 uM by Kinomescan method relative to control"}, "BT-483 [4]": {"tested_on": "BT-483", "experiment": "Cell cycle arrest in human BT-483 cells assessed as accumulation at sub-G1 phase at 5 to 10 uM after 24 to 72 hrs", "assay_type": "functional, cell-based"}, "[5]": {"molecular_target": "Hepatocyte growth factor receptor (Homo sapiens) (UniProt P08581)", "experiment": "Inhibition of wild-type human partial length MET (D1010 to S1367 residues) expressed in bacterial expression system assessed as residual activity at 1 uM by Kinomescan method relative to control"}, "BT-483 [6]": {"tested_on": "BT-483", "experiment": "Induction of apoptosis in human BT-483 cells assessed as live cells at 5 uM by Annexin V-FITC/propidium iodide staining based flow cytometry (reference value: 87.5%)", "assay_type": "functional"}, "[7]": {"molecular_target": "Proto-oncogene tyrosine-protein kinase Src (Homo sapiens) (UniProt P12931)", "sequence (P12931 2-536 limits assumed)": "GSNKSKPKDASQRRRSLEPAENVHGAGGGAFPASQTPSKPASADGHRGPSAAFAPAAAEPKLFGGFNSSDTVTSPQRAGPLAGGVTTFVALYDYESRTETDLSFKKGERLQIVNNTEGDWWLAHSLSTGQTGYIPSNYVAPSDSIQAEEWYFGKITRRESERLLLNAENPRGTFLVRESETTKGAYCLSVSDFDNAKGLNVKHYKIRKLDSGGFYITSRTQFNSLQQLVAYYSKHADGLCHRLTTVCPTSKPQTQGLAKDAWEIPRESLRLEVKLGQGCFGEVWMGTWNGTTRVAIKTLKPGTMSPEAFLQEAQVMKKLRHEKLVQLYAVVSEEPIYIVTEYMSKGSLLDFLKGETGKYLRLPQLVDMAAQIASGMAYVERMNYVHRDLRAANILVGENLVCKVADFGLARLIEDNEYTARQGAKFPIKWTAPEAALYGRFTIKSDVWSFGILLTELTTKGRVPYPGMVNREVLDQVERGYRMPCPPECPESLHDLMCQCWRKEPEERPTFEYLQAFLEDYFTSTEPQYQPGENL", "experiment": "Inhibition of wild-type human partial length SRC (L240 to L536 residues) expressed in bacterial expression system assessed as residual activity at 1 uM by Kinomescan method relative to control"}, "[8]": {"molecular_target": "Cyclin-dependent kinase 2 (Homo sapiens) (UniProt P24941)", "experiment": "Inhibition of wild-type human full length CDK2 (M1 to L298 residues) expressed in bacterial expression system assessed as residual activity at 1 uM by Kinomescan method relative to control"}, "[9]": {"molecular_target": "Dual specificity mitogen-activated protein kinase kinase 2 (Homo sapiens) (UniProt P36507)", "experiment": "Inhibition of wild-type human full length MEK2 (M1 to V400 residues) expressed in mammalian expression system assessed as residual activity at 1 uM by Kinomescan method relative to control"}, "BT-483 [10]": {"tested_on": "BT-483", "experiment": "Induction of autophagy in human BT-483 cells assessed as degradation of SQSTM1 protein at 5 to 10 uM by Western blot analysis", "assay_type": "functional, cell-based"}, "BT-483 [11]": {"tested_on": "BT-483", "experiment": "Induction of apoptosis in human BT-483 cells assessed as early apoptotic cells at 10 uM by Annexin V-FITC/propidium iodide staining based flow cytometry (reference value: 2.01%)", "assay_type": "functional"}, "[12]": {"tested_on": "Epidermal growth factor receptor (Homo sapiens), P00533 [L858R]", "experiment": "Inhibition of human partial length EGFR L858R mutant (R669 to V1011 residues) expressed in bacterial expression system assessed as residual activity at 1 uM by Kinomescan method relative to control"}, "[13]": {"molecular_target": "Protein kinase C epsilon type (Homo sapiens) (UniProt Q02156)", "experiment": "Inhibition of wild-type human partial length PRKCE (A378 to P737 residues) expressed in mammalian expression system assessed as residual activity at 1 uM by Kinomescan method relative to control"}, "BT-483 [14]": {"tested_on": "BT-483", "experiment": "Induction of apoptosis in human BT-483 cells assessed as necrotic cells at 5 uM by Annexin V-FITC/propidium iodide staining based flow cytometry (reference value: 0.18%)", "assay_type": "functional"}, "BT-483 [15]": {"tested_on": "BT-483", "experiment": "Upregulation of Bad protein expression in human BT-483 cells at 5 to 10 uM by Western blot analysis", "assay_type": "functional, cell-based"}, "[16]": {"molecular_target": "Tyrosine-protein kinase receptor UFO (Homo sapiens) (UniProt P30530)", "experiment": "Inhibition of wild-type human partial length AXL (R497 to Y821 residues) expressed in bacterial expression system assessed as residual activity at 1 uM by Kinomescan method relative to control"}, "[17]": {"molecular_target": "Serine/threonine-protein kinase STK11 (Homo sapiens) (UniProt Q15831)", "experiment": "Inhibition of wild-type human full length LKB1 (M1 to Q433 residues) expressed in bacterial expression system assessed as residual activity at 1 uM by Kinomescan method relative to control"}, "ZR-75-1": {"tested_on": "ZR-75-1", "experiment": "Cytotoxicity against human ZR-75-1 cells after 24 hrs by MTT assay", "assay_type": "functional, cell-based"}, "[18]": {"molecular_target": "MAP kinase-interacting serine/threonine-protein kinase 1 (Homo sapiens) (UniProt Q9BUB5)", "experiment": "Inhibition of wild-type human full length MKNK1 (M1 to L424 residues) expressed in mammalian expression system assessed as residual activity at 1 uM by Kinomescan method relative to control"}, "[19]": {"molecular_target": "Ephrin type-A receptor 2 (Homo sapiens) (UniProt P29317)", "experiment": "Inhibition of wild-type human partial length EPHA2 (T593 to V891 residues) expressed in bacterial expression system assessed as residual activity at 1 uM by Kinomescan method relative to control"}, "[20]": {"molecular_target": "Receptor tyrosine-protein kinase erbB-2 (Homo sapiens) (UniProt P04626)", "sequence (P04626 whole entry, the tested form may be a part)": "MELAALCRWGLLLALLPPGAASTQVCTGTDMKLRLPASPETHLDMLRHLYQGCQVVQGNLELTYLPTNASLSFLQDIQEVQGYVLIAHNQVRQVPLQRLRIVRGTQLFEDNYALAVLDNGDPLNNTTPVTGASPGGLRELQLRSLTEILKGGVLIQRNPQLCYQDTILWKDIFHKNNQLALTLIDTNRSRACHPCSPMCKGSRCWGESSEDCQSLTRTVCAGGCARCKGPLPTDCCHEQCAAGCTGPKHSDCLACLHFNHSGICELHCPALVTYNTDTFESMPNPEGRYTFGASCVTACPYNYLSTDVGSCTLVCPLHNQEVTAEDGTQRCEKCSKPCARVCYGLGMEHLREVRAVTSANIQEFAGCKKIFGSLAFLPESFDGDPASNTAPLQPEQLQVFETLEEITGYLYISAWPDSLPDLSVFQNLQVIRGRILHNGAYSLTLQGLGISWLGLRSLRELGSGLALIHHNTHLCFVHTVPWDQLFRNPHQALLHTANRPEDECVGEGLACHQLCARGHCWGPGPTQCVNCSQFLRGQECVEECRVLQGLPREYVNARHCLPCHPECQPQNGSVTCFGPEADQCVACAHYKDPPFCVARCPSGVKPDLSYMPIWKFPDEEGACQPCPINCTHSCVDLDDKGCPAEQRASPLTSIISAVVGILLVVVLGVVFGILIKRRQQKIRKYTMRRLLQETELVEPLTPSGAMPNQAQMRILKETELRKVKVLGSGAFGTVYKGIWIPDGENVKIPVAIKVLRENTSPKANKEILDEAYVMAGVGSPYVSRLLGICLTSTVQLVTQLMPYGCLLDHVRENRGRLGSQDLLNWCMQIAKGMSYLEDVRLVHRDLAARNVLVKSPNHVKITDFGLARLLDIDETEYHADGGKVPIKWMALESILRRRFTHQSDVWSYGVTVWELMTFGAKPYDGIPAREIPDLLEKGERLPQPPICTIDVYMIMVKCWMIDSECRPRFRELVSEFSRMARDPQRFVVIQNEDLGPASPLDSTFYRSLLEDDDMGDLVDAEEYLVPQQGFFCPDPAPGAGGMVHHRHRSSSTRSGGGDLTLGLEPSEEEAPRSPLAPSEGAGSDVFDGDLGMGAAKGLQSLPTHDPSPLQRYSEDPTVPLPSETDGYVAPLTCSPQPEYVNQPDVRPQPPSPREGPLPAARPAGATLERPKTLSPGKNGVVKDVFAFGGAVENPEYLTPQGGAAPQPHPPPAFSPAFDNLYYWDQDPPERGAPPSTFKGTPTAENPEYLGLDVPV", "experiment": "Inhibition of wild-type human partial length ERBB2 (K646 to V1225 residues) expressed in mammalian expression system assessed as residual activity at 1 uM by Kinomescan method relative to control"}, "[21]": {"tested_on": "Tyrosine-protein kinase ABL1 (Homo sapiens), P00519 [E255K]", "experiment": "Inhibition of human phosphorylated ABL1 E255K mutant (S229 to K512 residues) expressed in mammalian expression system assessed as residual activity at 1 uM by Kinomescan method relative to control"}, "[22]": {"molecular_target": "Serine/threonine-protein kinase RIO2 (Homo sapiens) (UniProt Q9BVS4)", "sequence (Q9BVS4 whole entry, looked up, the tested form may be a part)": "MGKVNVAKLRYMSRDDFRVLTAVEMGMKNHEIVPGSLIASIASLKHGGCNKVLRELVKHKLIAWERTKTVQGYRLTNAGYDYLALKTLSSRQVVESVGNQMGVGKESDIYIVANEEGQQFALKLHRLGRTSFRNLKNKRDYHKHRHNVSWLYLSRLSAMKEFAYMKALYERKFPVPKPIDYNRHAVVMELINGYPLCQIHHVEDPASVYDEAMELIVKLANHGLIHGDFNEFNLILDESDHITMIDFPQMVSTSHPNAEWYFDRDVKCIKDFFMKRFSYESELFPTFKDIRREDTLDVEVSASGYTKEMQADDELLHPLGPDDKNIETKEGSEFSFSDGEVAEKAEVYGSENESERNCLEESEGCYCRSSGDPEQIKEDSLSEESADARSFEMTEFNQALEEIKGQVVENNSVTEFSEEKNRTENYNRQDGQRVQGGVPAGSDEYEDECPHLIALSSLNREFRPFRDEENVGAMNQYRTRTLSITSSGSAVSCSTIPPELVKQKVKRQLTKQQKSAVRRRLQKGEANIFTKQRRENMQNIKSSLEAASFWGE", "experiment": "Inhibition of wild-type human partial length RIOK2 (M1 to D313 residues) expressed in mammalian expression system assessed as residual activity at 1 uM by Kinomescan method relative to control"}, "[23]": {"molecular_target": "Vascular endothelial growth factor receptor 2 (Homo sapiens) (UniProt P35968)", "sequence (P35968 whole entry, the tested form may be a part)": "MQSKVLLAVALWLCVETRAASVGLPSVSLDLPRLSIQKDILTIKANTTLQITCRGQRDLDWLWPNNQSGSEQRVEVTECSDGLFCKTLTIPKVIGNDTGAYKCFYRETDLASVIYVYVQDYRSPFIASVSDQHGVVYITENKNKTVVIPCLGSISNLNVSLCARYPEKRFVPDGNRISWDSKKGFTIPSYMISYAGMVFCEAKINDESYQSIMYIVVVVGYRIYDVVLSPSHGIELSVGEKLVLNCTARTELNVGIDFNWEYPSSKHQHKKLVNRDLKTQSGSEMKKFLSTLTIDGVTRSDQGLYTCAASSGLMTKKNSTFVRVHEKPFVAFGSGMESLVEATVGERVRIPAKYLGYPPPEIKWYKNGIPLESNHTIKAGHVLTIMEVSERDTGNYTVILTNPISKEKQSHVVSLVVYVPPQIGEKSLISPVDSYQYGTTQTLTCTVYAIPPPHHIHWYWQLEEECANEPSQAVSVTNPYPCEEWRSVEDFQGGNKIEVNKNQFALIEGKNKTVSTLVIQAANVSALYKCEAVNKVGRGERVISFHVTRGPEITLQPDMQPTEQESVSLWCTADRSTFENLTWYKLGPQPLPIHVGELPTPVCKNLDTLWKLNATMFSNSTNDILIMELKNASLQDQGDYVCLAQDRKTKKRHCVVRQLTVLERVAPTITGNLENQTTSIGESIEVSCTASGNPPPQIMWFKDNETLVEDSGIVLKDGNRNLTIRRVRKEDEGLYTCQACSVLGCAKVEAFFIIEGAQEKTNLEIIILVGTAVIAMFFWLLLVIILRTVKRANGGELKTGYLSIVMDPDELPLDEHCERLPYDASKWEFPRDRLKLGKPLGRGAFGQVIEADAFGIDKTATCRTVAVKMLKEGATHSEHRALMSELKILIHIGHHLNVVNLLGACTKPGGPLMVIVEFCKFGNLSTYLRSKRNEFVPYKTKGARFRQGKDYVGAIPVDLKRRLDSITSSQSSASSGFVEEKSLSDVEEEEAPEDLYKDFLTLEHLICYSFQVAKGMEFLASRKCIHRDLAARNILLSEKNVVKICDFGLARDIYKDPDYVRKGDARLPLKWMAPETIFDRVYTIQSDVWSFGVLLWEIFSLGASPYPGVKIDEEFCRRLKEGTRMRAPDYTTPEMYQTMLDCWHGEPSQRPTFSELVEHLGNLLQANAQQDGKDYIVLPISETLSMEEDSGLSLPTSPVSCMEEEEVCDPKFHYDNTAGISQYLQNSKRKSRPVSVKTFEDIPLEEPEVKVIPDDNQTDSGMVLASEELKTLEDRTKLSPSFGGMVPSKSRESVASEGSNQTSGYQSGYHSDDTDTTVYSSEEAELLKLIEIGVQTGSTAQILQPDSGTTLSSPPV", "experiment": "Inhibition of wild-type human partial length VEGFR2 (R787 to P1253 residues) expressed in mammalian expression system assessed as residual activity at 1 uM by Kinomescan method relative to control"}, "[24]": {"molecular_target": "Serine/threonine-protein kinase PLK1 (Homo sapiens, UniProt P53350)", "sequence (P53350 whole entry)": "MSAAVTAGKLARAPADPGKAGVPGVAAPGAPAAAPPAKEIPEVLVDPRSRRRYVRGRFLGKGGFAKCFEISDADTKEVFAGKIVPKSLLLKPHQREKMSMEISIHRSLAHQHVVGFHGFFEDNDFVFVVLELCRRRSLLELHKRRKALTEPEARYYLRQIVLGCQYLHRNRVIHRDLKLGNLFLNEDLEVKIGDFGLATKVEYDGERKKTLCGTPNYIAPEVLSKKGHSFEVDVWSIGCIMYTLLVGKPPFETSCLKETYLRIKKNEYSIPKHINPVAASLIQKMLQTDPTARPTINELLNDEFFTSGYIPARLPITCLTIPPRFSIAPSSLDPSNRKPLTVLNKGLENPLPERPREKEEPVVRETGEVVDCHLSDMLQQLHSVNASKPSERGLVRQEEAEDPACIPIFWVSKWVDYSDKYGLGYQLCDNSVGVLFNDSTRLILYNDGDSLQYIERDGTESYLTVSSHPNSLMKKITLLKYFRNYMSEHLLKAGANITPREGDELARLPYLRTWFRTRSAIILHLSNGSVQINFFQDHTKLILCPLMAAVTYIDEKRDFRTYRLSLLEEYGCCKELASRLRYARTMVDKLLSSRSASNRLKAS", "experiment": "Inhibition of full length human PLK1 at 20 uM using casein as substrate after 40 mins in presence of [gamma-33P]-ATP by radiometric assay relative to control"}, "[25]": {"molecular_target": "Mitogen-activated protein kinase 10 (Homo sapiens) (UniProt P53779)", "experiment": "Inhibition of wild-type human partial length JNK3 (V28 to Q422 residues) expressed in mammalian expression system assessed as residual activity at 1 uM by Kinomescan method relative to control"}, "[26]": {"tested_on": "Mast/stem cell growth factor receptor Kit (Homo sapiens), P10721 [D816V]", "experiment": "Inhibition of human partial length KIT D816V mutant (I571 to D952 residues) expressed in bacterial expression system assessed as residual activity at 1 uM by Kinomescan method relative to control"}, "[27]": {"molecular_target": "Mitogen-activated protein kinase kinase kinase 7 (Homo sapiens) (UniProt O43318)", "sequence (O43318 whole entry, the tested form may be a part)": "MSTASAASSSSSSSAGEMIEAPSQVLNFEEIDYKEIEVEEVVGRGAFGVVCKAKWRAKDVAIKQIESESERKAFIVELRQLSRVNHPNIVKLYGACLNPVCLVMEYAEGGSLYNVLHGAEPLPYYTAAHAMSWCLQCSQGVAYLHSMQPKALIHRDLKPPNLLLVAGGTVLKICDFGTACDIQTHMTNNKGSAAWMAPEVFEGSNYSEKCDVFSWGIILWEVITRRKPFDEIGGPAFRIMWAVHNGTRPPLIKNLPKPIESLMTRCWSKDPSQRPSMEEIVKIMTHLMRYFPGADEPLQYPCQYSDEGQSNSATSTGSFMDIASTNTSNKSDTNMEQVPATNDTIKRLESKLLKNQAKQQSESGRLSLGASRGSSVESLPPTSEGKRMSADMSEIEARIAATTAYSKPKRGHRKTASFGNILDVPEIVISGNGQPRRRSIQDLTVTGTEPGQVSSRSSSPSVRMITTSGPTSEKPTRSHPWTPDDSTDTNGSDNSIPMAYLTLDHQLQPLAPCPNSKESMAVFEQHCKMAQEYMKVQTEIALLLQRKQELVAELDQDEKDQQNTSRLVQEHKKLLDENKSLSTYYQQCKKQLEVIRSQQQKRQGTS", "experiment": "Inhibition of wild-type human partial length TAK1 (M1 to Q303 residues) expressed in mammalian expression system assessed as residual activity at 1 uM by Kinomescan method relative to control"}},
  "note": "The source made the active and inactive calls. The calls are words filed in the database; no cut-off is given here.",
  "data": [
    {"smiles": "CCNc1cc(-c2ccc(NC(=O)Nc3cccc(Cl)c3)cc2C(F)(F)F)ccn1", "values": [
      {"measurement": "Activity", "setting": "BT-483 [1]", "result": 0.48, "unit": "%"},
      {"measurement": "Activity", "setting": "[2]", "result": 85, "unit": "%"},
      {"measurement": "Activity", "setting": "[3]", "result": 69, "unit": "%"},
      {"measurement": "Activity", "setting": "BT-483 [4]", "result": "Active"},
      {"measurement": "Activity", "setting": "[5]", "result": 73, "unit": "%"},
      {"measurement": "Activity", "setting": "BT-483 [6]", "result": 86.2, "unit": "%"},
      {"measurement": "Activity", "setting": "[7]", "result": 93, "unit": "%"},
      {"measurement": "Activity", "setting": "[8]", "result": 98, "unit": "%"},
      {"measurement": "Activity", "setting": "[9]", "result": 67, "unit": "%"},
      {"measurement": "Activity", "setting": "BT-483 [10]", "result": "Active"},
      {"measurement": "Activity", "setting": "BT-483 [11]", "result": 8.72, "unit": "%"},
      {"measurement": "Activity", "setting": "[12]", "result": 99, "unit": "%"},
      {"measurement": "Activity", "setting": "[13]", "result": 67, "unit": "%"},
      {"measurement": "Activity", "setting": "BT-483 [14]", "result": 0.45, "unit": "%"},
      {"measurement": "Activity", "setting": "BT-483 [15]", "result": "Active"},
      {"measurement": "Activity", "setting": "[16]", "result": 99, "unit": "%"},
      {"measurement": "Activity", "setting": "[17]", "result": 75, "unit": "%"},
      {"measurement": "Activity", "setting": "ZR-75-1", "result": "Active"},
      {"measurement": "Activity", "setting": "[18]", "result": 81, "unit": "%"},
      {"measurement": "Activity", "setting": "[19]", "result": 95, "unit": "%"},
      {"measurement": "Activity", "setting": "[20]", "result": 98, "unit": "%"},
      {"measurement": "Activity", "setting": "[21]", "result": 82, "unit": "%"},
      {"measurement": "Activity", "setting": "[22]", "result": 67, "unit": "%"},
      {"measurement": "Activity", "setting": "[23]", "result": 60, "unit": "%"},
      {"measurement": "inhibition", "setting": "[24]", "result": 94.9, "unit": "%"},
      {"measurement": "Activity", "setting": "[25]", "result": 64, "unit": "%"},
      {"measurement": "Activity", "setting": "[26]", "result": 84, "unit": "%"},
      {"measurement": "Activity", "setting": "[27]", "result": 76, "unit": "%"}
    ]}
  ]
}
